Here are results for 22 molecules from patent US8236527B2, “Recombinant production of authentic human proteins using human cell expression systems” (Humanzyme Limited, priority 2008, dated 2012).

Data set [1] concerns the target p38α produced and activated in human cells (Homo sapiens, UniProt Q16539). Description: Kinase inhibitor IC50 determination with p38α produced in human cells. The format is biochemical. The note with it: read-out: IC50, Human Cell.
For data set [2], the target named is p38α expressed in E. coli, Vendor A, in vitro activated by MKK6 (Homo sapiens, UniProt Q16539). Description: Kinase inhibitor IC50 determination with E. coli p38α (Vendor A, E coli-I). The format is biochemical.
p38α expressed in E. coli, Vendor A, in vitro activated by MKK6, sequence (Q16539 whole entry): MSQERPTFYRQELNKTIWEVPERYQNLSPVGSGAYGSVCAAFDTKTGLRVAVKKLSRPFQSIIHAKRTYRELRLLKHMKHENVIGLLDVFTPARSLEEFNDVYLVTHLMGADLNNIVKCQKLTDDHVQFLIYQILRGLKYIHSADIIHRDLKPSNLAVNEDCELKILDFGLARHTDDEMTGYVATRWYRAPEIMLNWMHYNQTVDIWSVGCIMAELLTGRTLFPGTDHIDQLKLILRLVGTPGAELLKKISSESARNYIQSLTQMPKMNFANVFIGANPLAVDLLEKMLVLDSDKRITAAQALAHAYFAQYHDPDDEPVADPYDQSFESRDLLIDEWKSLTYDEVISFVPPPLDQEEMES
Data set [3] addresses p38α expressed in E. coli, Vendor B, in vitro activated by MKK6 (Homo sapiens, UniProt Q16539). Description: Kinase inhibitor IC50 determination with E. coli p38α (Vendor B, E coli-II). The format is biochemical.
Data set [4] can be described thus: Km.ATP of p38α preparations. The format is biochemical.
Data set [5] has as its system whole CD4+ cells from a healthy donor. Description: Th17 polarizing cytokines: IL-17 secretion from human CD4+ cells (ELISA). Particulars: for induction of IL-17 secretion: compared with cytokines from insect cell or bacterial expression system, 5 days; for Th17 cell polarization: separate study, same condition. Type of data set: cell-based. An excerpt:
IL-17-producing CD4+ T cells (Th-17 cells) have been identified as a unique subset of Th cells that develop along a pathway that is distinct from the Th1, and Th2-cell differentiation pathways. This finding has provided exciting new insights into immunoregulation, host defense and the pathogenesis of autoimmune diseases. Recently it has been shown that IL1β, IL6 and IL23 are important in driving human Th17 differentiation. However, TGF-β1, which is important for the differentiation of murine Th17 cells, is reported to be not required, and even inhibits human Th17 differentiation (McGeachy & Cua (2008) Immunity 28:445, Chen & O'Shea (2008) Cytokines 41:71). In this study, whole […] cells isolated from a healthy donor were stimulated with 10 μg/mL plate bound anti-CD3 and 10 μg/ml soluble anti-CD28 in the presence of Th17 polarizing cytokines from the inventive human cell expression system and from an insect cell or bacterial expression system. After 5 days supernatants were harvested for measurement of IL-17 by ELISA.

The next data set concerns human TF-1 cells. Description: IL-4 bioactivity: dose-dependent stimulation of proliferation of TF-1 cells. Type of data set: cell-based. Particulars: TF-1 cell proliferation.
Data set [6] has as its system human embryonic stem (hES) cells. Description: Oct3/4 expression in Noggin-treated human embryonic stem cells (Western blot). Type of data set: cell-based. The note with it: 10 pg/ml and 20 pg/ml treatment.
The test system of data set [7] is human umbilical vein endothelial cells. Description: VEGF165 bioactivity: proliferation of human umbilical vein endothelial cells. Type of data set: cell-based. The note with it: HUVEC proliferation.
The test system of the next data set is human CD4+ T cells. Description: IL-23 activity: IL-17 secretion from human CD4+ T cells (ELISA). Type of data set: cell-based. Particulars: human CD4+ cells, 5 days. The protocol:
(A) IL-23 activities determined by the dose-dependent secretion of IL-17 from mouse splenocytes activated with 10 ng/ml PMA. (B) IL-23 activities determined by the dose-dependent secretion of IL-17 from human CD4+ T cells stimulated with […] plate bound anti-CD3 and […] soluble anti-CD28 in the presence of Th17 polarizing cytokines.
FIG. 22: Efficient differentiation of Th17 cells with authentic cytokines expressed in human cells. Whole CD4+ T cells isolated from a healthy donor were stimulated with 2 μg/mL plate bound anti-CD3 and 1 μg/mL soluble anti-CD28 in the presence of Th17 polarizing cytokines, including a titration of IL-23. After 5 days, supernatants were harvested for measurement of IL-17 by ELISA. See (A)-(G). FIG. 22 (H) depicts flow cytometry analysis on Human Th17 Differentiation by Authentic human TGF-β1. See Example 17 below.
IL-17-producing CD4+ T cells (Th17 cells) have been identified as a unique subset of T helper cells that develop along a pathway that is distinct from the Th1 and Th2-cell differentiation pathways. This finding has provided exciting new insights into immunoregulation, host defense and the pathogenesis of autoimmune diseases. Recently it has been shown that TGF-β1, […], IL-6 and IL-23 are important in driving human Th17 differentiation (Chen & O'Shea (2008) Cytokines 41:71). […] The activities were further assayed with human CD4+ cells which were isolated from a healthy donor and stimulated with 10 μg/ml plate bound anti-CD3 and 10 μg/ml soluble anti-CD28 in the presence of Th17 polarizing cytokines. After 5 days supernatants were harvested for measurement of IL-17 by ELISA.

Setting [8] is: p38α from E. coli, Vendor A, read-out: IC50, E coli-I.
Setting [9] is: p38α from E. coli, Vendor B, read-out: IC50, E coli-II.

Structures can show the parent of a compound that is named as a salt. Where two headings read alike, the source gives them in different places.

p38α expressed in E. coli, Vendor B, in vitro activated by MKK6, sequence (Q16539 whole entry): as above
p38α produced and activated in human cells, sequence (Q16539 whole entry): as above

Take `CCCCCCOC(=O)[C@]1(O)C[C@@H]2O[C@@]1(C)n1c3ccccc3c3c4c(c5c6ccccc6n2c5c31)C(=O)NC4` [KT5720]: the IC50 in [1] (p38α produced in human cells) was 5 µM; in data set [2] (setting [8]), above 10 µM; in [3] (setting [9]), above 10 µM.

For “Vendor preparation: p38α from Vendor A, expressed and purified from E. coli, in vitro activated by MKK6”, in data set [4], the Km is 212 ± 26 µM.

Turning to “IL6: recombinantly-produced, authentic human IL6; SEQ ID NO: 16”, the “induction of IL-17 secretion” value in data set [5] is “significantly more effective”.

Take “IL4: IL4 from human cells, glycosylated major band of 19 kD; SEQ ID NO: 22”: the “fold higher potency than the E. coli expressed cytokine” value with human TF-1 cells is 4 fold.

In the case of `COC(=O)[C@@]1(O)C[C@H]2O[C@]1(C)n1c3ccccc3c3c4c(c5c6ccccc6n2c5c31)C(=O)NC4` [K252a], the figures for the half-maximal inhibitory concentration (IC50) in [1], in [2] and in data set [3] were 0.005 µM, above 10 µM and above 10 µM, respectively.

As for `NCCNS(=O)(=O)c1cccc2cnccc12` [H-9 dihydrochloride], the IC50 in [1] (p38α produced in human cells), in [2] (setting [8]) and in [3] (setting [9]) was above 10 µM each time.

Take `O=S(=O)(NCCNC/C=C/c1ccc(Br)cc1)c1cccc2cnccc12` [H89 Dihydrochloride]: the IC50 in data set [1] (p38α produced in human cells), in [2] (setting [8]) and in [3] (setting [9]) was above 10 µM each time.

Take `Nc1ncnc2c1ncn2[C@@H]1O[C@H](COP(=O)(O)OP(=O)(O)NP(=O)(O)O)[C@@H](O)[C@H]1O` [AMP-PNP]: the IC50 in data set [1] (p38α produced in human cells) is 257 µM; in data set [2] (setting [8]) it was 1810 µM; in data set [3] (setting [9]), above 2000 µM. Besides, in data set [2] (Vendor A preparation vs p38α from human cells), the “fold less sensitive than human cell p38α” value is on record as 7 fold.

Take `CN(C)C[C@H]1CCn2c(c(C3=C(c4cn(C)c5ccccc45)C(=O)NC3=O)c3ccccc32)C1` [Ro 32-0432]: the IC50 in [1] (p38α produced in human cells), in [2] (setting [8]) and in [3] (setting [9]) was above 10 µM each time.

Consider “authentic p38α: recombinantly-produced, authentic human p38a produced and activated in human cells in the presence of arsenite”, for which the Km in data set [4] stood at 109 ± 12 µM.

With `CN(C)CCCn1cc(C2=C(c3c[nH]c4ccccc34)C(=O)NC2=O)c2ccccc21` [GF 109203X], the IC50 in data set [1], in data set [2] (setting [8]) and in [3] (setting [9]) was above 10 µM throughout.

Regarding “IL1β: recombinantly-produced, authentic human IL1β from the human cell expression system”, the “induction of IL-17 secretion” value in data set [5] is reported as “significantly more effective”.

On to “TGF-β1 from insect cells: TGF-β1 cytokine from insect cells used as comparator”, for which the “induction of IL-17 secretion” value in data set [5] is on record as “marginal effect”.

On to `CC(=O)c1c(O)c(C)c(O)c(Cc2c(O)c3c(c(C(=O)/C=C/c4ccccc4)c2O)OC(C)(C)C=C3)c1O` [Rottlerin], for which the IC50 in data set [1], in data set [2] and in data set [3] was above 200 µM in each case.

For the molecule “Vendor B enzyme: p38α from Vendor B, expressed and purified from E. coli, in vitro activated by MKK6”, in [4], the Km came to 120 µM.

For `Cn1cc(C2=C(c3cn(CCCSC(=N)N)c4ccccc34)C(=O)NC2=O)c2ccccc21` [Ro 31-8220], the IC50 is 9.9 µM in data set [1] (p38α produced in human cells), above 10 µM in data set [2] (setting [8]) and above 10 µM in data set [3] (setting [9]).

Consider `Nc1ncnc2c1c(I)cn2[C@@H]1O[C@H](CO)[C@@H](O)[C@H]1O` [5-iodotubercidin], for which the IC50 in data set [1] is above 10 µM; in [2] (read-out: IC50, E coli-I), above 10 µM; in data set [3] (read-out: IC50, E coli-II), above 10 µM.

B1: authentic human Noggin: Noggin from human 293 cell expression system, glycosylated, disulfide-linked dimer; SEQ ID NO: 24 (protein)
chain: QHYLHIRPAPSDNLPLVDLIEHPDPIFDPKEKDLNETLLRSLLGGHYDPGFMATSPPEDRPGGGGGAAGGAEDLAELDQLLRQRPSGAMPSEIKGLEFSEGLAQGKKQRLSKKLRRKLQMWLWSQTFCPVLYAWNDLGSRFWPRYVKVGSCFSKRSCSVPEGMVCKPSKSVHLTVLRWRCQRRGGQRCGWIPIQYPIISECKCSC
modifications: glycosylated disulfide-linked homodimer
As to B1, the “Oct3/4 expression (marker for undifferentiated hES cells)” value in data set [6] was “consistently expressed Oct3/4”; in data set [6] (listed as authentic human homodimer Noggin), “expresses so effectively and consistently Oct3/4”.

B2: authentic human VEGF165: VEGF165 from engineered human 293 cells, glycosylated homodimer of 45 kD; SEQ ID NO: 2 (protein)
chain: APMAEGGGQNHHEVVKFMDVYQRSYCHPIETLVDIFQEYPDEIEYIFKPSCVPLMRCGGCCNDEGLECVPTEESNITMQIMRIKPHQGQHIGEMSFLQHNKCECRPKKDRARQENPCGPCSERRKHLFVQDPQTCKCSCKNTDSRCKARQLELNERTCRCDKPRR
modifications: glycosylated homodimer
As to B2, the “fold more active than the E. coli expressed protein” value is 10 fold in [7] and 6 fold in [7] (listed as VEGF165).

B3: TGF-β3: TGF-β3 from engineered human 293 cells, disulfide-linked dimer of 25 kD (protein, UniProt P10600 301-412, looked up)
Transforming growth factor …: ALDTNYCFRNLEENCCVRPLYIDFRQDLGWKWVHEPKGYYANFCSGPCPYLRSADTTHSTVLGLYNTLNPEASASPCCVPQDLEPLTILYYVGRTPKVEQLSNMVVKSCKCS
Turning to B3, the Th17 cell polarization entry in [5] is “can effectively induce Th17 cell polarization”.

B4: TGF-β2: TGF-β2 from engineered human 293 cells, disulfide-linked dimer of 25 kD (protein, UniProt P61812 303-414, looked up)
Transforming growth factor …: ALDAAYCFRNVQDNCCLRPLYIDFKRDLGWKWIHEPKGYNANFCAGACPYLWSSDTQHSRVLSLYNTINPEASASPCCVSQDLEPLTILYYIGKTPKIEQLSNMIVKSCKCS
In the case of B4, the Th17 cell polarization entry in data set [5] is on record as “can effectively induce Th17 cell polarization”.

B5: insect cell-produced IL-23: commercially available recombinant IL-23 from an insect cell expression system (protein, UniProt Q9NPF7 20-189; P29460 23-328, looked up)
Interleukin-23 subunit alpha: RAVPGGSSPAWTQCQQLSQKLCTLAWSAHPLVGHMDLREEGDEETTNDVPHIQCGDGCDPQGLRDNSQFCLQRIHQGLIFYEKLLGSDIFTGEPSLLPDSPVGQLHASLLGLSQLLQPEGHHWETQQIPSLSPSQPWQRLLLRFKILRSLQAFVAVAARVFAHGAATLSP
Interleukin-12 subunit beta: IWELKKDVYVVELDWYPDAPGEMVVLTCDTPEEDGITWTLDQSSEVLGSGKTLTIQVKEFGDAGQYTCHKGGEVLSHSLLLLHKKEDGIWSTDILKDQKEPKNKTFLRCEAKNYSGRFTCWWLTTISTDLTFSVKSSRGSSDPQGVTCGAATLSAERVRGDNKEYEYSVECQEDSACPAAEESLPIEVMVDAVHKLKYENYTSSFFIRDIIKPDPPKNLQLKPLKNSRQVEVSWEYPDTWSTPHSYFSLTFCVQVQGKSKREKKDRVFTDKTSATVICRKNASISVRAQDRYYSSSWSEWASVPCS
For B5, the “concentration at which maximum induction of IL-17 secretion was achieved” value with human CD4+ T cells was 10 ng/mL.
